Results: US20240157358A1, “BIOSENSING SYSTEM AND METHOD FOR IN-SITU DETERMINATION OF METASTASIS IN A SAMPLE” (City University of Hong Kong, priority 2022, published 2024)

System: C. elegans
Experiment: C. elegans chemotaxis assay in the microfluidic biosensor
Type: in vivo, Caenorhabditis elegans
Conditions: for nematode chemotaxis score: single substance at lower concentrations, corresponding to metastatic cancer, heat maps FIGS. 7C and 7D; for CIPBS level (chemotaxis index relative to PBS): CI level of PBS buffer standards defined as 1, FIG. 3B
Protocol: It was cultured in the OP50, a strain of Escherichia coli used to maintain C. elegans cultures, with nematode growth media (NGM) plate. Before each biosensing assay, the viability of C. elegans was assessed by probing with an inoculation needle.
All materials required for performing biosensing assay in the present biosensing system should be kept at room temperature before loading C. elegans into the biosensor to maintain their viability. Briefly, medium supernatants at −80° C. and biosensor initially stored in a 4° C. freezer were thawed at room temperature. Adult C. elegans were collected in 1.5 mL tubes and washed twice with phosphate-buffered saline (PBS) buffer (Gibco, Waltham, MA, USA) before assay. All clinical samples to be tested were transported at room temperature, and the biosensing assay should be completed within 4 hours from the time of collection. The clinical samples should be mixed well before loading, and about 1 ml of the sample was taken into a 1.5 ml tube for each biosensing assay. The remaining samples could be sealed and stored at −80° C. for further use.
During each biosensing assay, approximately 50-100 μl of PBS containing 100 C. elegans was gently pipetted into the middle of the second layer where the organism loading region is disposed without compromising the viability of C. elegans and disrupting the integrity of the NGM agar, thereby increasing the reliability of the biosensing assay results. Once the C. elegans were settled, the pressure pump was started immediately to flow the test samples, comparative sample and/or negative control to the corresponding bio-incubation chambers from the fluid inlets at the first layer and through different fluid channels to reach the second layer without damaging the NGM agar integrity. In certain embodiments, an optimal flow rate of the fluid applied to the biosensor is about 0.5 mL/min. […] By this optimal flow rate, all fluid channels can be primed in 1 min and about 10 to 100 μl droplets can be formed at each fluid outlet of the fluid channels. Because of that, the volume of the test samples applied in each fluid inlet at each round of biosensing assay can be less than 1 mL. […]
To standardize the quantitative readouts, a chemotaxis index (CI) relative to the CI measured from PBS (CIPBS) was derived by the following Equation:
The CIPBS level readouts were evaluated with the present biosensing system using a range of glutamate concentration levels that included concentrations detected from MCF-7 and MDA-MB-231 clusters (0.02 mg/ml, 0.04 mg/ml, 0.06 mg/ml, 0.08 mg/ml, and 0.1 mg/ml) (FIG. 3A). CI level readouts were modified for parallel comparison of all concentrations, with the CI level obtained from PBS buffer standards defined as 1.

Compound	nematode chemotaxis score	CIPBS level (chemotaxis index relative to PBS) (glutamate concentration 0.02 mg/ml)	CIPBS level (chemotaxis index relative to PBS) (glutamate concentration 0.1 mg/ml (highest tested))
O=C(O)[C@@H]1CCCN1 [L-proline]	around 6		
N[C@@H](CCC(=O)O)C(=O)O [glutamate]		3.6±0.03	1.1±0.04
NC(N)=O [urea]	around 6		
